Reference: patent publication US11925632B2, “Isoquinoline derivatives for use in treating GLUT1 deficiency syndrome” (GLIAPHARM SA, priority 2019, dated 2024)

Key:
astrocytes = experiment: Extracellular medium acidification (SNARF5) assay in astrocytes; assay type: cell-based; settings: Mus musculus, Astrocyte, 1.5 h; astrocytes in vitro, 90 min stimulation, 10 nM to 30 μM
Description: Secretion of lactate was measured indirectly through the acidification of extracellular medium using extracellular pH sensor SNARE-5F-(AND-6)-CAR (SNARF5) as described below.
Secretion of lactate was measured indirectly through the acidification of extracellular medium using extracellular pH sensor […] (SNARF5). After washing cells twice with stimulation medium (DMEM (D5030, Sigma), 1 mM […], and 5 mM Glucose, pH 7.4) at 37° C., cells were stimulated with compounds at a final concentration ranging from 10 nM to 30 μM in 50 μl per well of stimulation medium supplemented with 10 μM of SNARF5 (Life Technologies Corporation). Each compound was tested in two different plates for duplicates. After 90 min stimulation, fluorescence was read at exc. (excitation) 480 nm/emm. (emission) 580 nm and at exc 480 nm/emm. 630 nm. The ratio of fluorescence between 630 nm and 580 emission values, which is proportional to extracellular pH, was calculated. In each plate, 8 wells were used for negative controls (DMSO 0.1%) and 8 wells were used for positive controls (CCCP 2 μM in DMSO).
Table 3 below lists compounds that are active on the extracellular medium acidification (SNARF5) assay in astrocytes in vitro, which indicates their ability to produce lactate. ‘+’ indicates activity of compounds with EC50>5 μM; ‘++’ indicates activity of compounds with EC50<5 μM.
Primary cultures of cerebrocortical astrocytes were obtained from 1 to 2-day-old OF1 mouse pups (Charles River). Briefly, cortices were isolated and minced in small pieces under a dissecting microscope. The cells were incubated for 30 min at 37° C. in a solution containing 20 U/ml papain, 1 mM L-cysteine and 10 kU/ml DNase I. After dissociation, papain activity was stopped by the addition of fetal calf serum (FCS). Single-cell suspension was then obtained by mechanical dissociation, which consisted in cells trituration in a DMEM D7777 medium supplemented with 44 mm NaHCO3, 10 ml/L antibiotic/antimycotic solution and 10% FCS. The cells were seeded at an average density of ˜10′000 cells/cm^2 on poly-D-lysine coated 96- or 12-well culture plates, depending on their use, and grown in DMEM D7777 medium supplemented with 44 mm NaHCO3, 10 ml/L antibiotic/antimycotic solution and 10% FCS at 37° C. in a humidified atmosphere containing 5% CO2/95% air. Culture medium was renewed twice a week. Cells were stimulated and harvested between DIV14 and DIV17, when confluence and cell growth were optimal.

C57Bl/6 wild-type mice = experiment: Long-term memory test, inhibitory avoidance (IA); assay type: in vivo, mouse
Description: For pharmacodynamics (FIG. 5) and cognition (FIG. 7) experiments, adult male C57Bl/6J wild-type mice weighting 18-28 g (8 weeks of age) were used (Charles River). For ALS mouse models (FIG. 6), G93A SOD1 transgenic male and female mice on B6.SJL1-Gur/J background were used (Jackson Laboratory).
Animals were housed in groups of 3-5 in polypropylene cages (30×40×15 cm) with wire mesh top in a temperature (22±2° C.) and humidity (55±15%) controlled environment on a 12 hour light cycle (07.00-19.00 h lights on), except after surgeries when animal were housed individually. The samples (Vehicle or compounds of the invention) were administered per os (gavage) in a solution made of water supplemented with 0.4% hydroxypropyl methylcellulose (HPMC) Methocel 4KM (w/v) and 0.25% Tween-20 (v/v), as previously described (Thackaberry et al., 2010, Toxicol Sci., 117(2):485-92). Concentrations of the compounds tested ranged from 10 to 100 mg/kg.
IA test is a well-established memory paradigm in rodents that measures contextual memory associated with a mild electrical footshock in a specific context (the dark compartment of the IA chamber). Groups of 8-week old C57Bl/6 wild-type female mice were tested. Each mouse was handled for 5 minutes per day for at least 4 consecutive days to reduce animal's stress due to experimenter's presence/manipulation during test days. Inhibitory avoidance was carried out in an IA chamber (MedAssociates) that consists in a rectangular Perspex box divided into a safe and a shock compartment separated by an automatically operated sliding door. […] Memory retention was measured at 24 h or 3 weeks after training by placing the mouse back into the lit compartment and recording its latency (in seconds) to enter the dark compartment. […]
Memory was measured after oral administration of vehicle or compound (1) (100 mg/kg) to young adult male mice orally, and 20 min later a training for IA (FIG. 7). 24 hours and 3 weeks after training, latencies of mice to enter back into the dark compartment of the IA chamber, the place where they received the shock, were measured.

[1] = single dose 100 mg/kg oral before training, vs vehicle

In the case of `COc1cc2ccnc(Nc3ccc(OC(F)(F)F)cc3)c2cc1OC` [Example 1, 6,7-dimethoxy-N-(4-(trifluoromethoxy)phenyl)isoquinolin-1-amine], the EC50 (astrocytes) is reported as > 5 µM, the “Latency to enter the dark compartment at training” value (C57Bl/6 wild-type mice; 100 mg/kg oral, 20 min before training) is reported as “same latencies at training” and the “Latency to enter the dark compartment, 3 weeks after training” value (C57Bl/6 wild-type mice; [1]) is reported as “significantly higher”. For the same compound, the “Latency to enter the dark compartment, 24 h after training” value (C57Bl/6 wild-type mice; [1]) was “significantly higher”.
